Assay results from patent publication US4256832A, “Carcinogen and mutagen screening method and apparatus” (BioResearch Inc., priority 1978, dated 1981).

Experiments:
[1] = system: oxidative phosphorylation; settings: cited from earlier work; for uncoupling: higher concentrations than 10^-9 M; for stimulation of respiration and ATP production: low concentrations (10^-9 M)
[2] = system: S. typhimurium TA 1530; settings: cited from earlier work
[3] = system: S. typhimurium TA 1535; experiment: Oxygen uptake of S. typhimurium TA 1535 cultures in minimal histidine medium, oxygen electrode (mutagen screening); type: cell-based, Salmonella typhimurium; settings: flasks 3 and 4
Source text: In the device illustrated in FIG. 1, two conventional oxygen electrodes, 10, 11, of the Clark type are employed. […] Electrode 11, designated the test electrode, measures the respiration rate (O2 uptake) of the same fixed volume 13 and concentration of Ames test bacteria and media as the control electrode. In the second case, the media also contains the chemical to be evaluated. If the chemical is a carcinogen or mutagen, the O2 uptake of test electrode 11 will increase at a faster rate than that of the control. This occurs because the reversion rate, and thus the growth rate and O2 consumption rate will be higher in the test electrode 11 than in the control electrode 10. Conversely, if the chemical is not a carcinogen or a mutagen, the O2 uptake rates will be similar. Thus, by measuring the difference in O2 uptake rates between a control and a test electrode, the potential carcinogenicity and/or mutagenicity of a chemical can be evaluated. […]
The test organism, S. typhimurium TA 1535 is grown overnight, washed three times in phosphate buffer and resuspended to give OD of 0.8 (>10^8 per ml). […] At zero, four, and 32 hours, 1 ml of culture is added to 2 ml of aerated minimal glucose media in the test chamber of an oxygen electrode and the rate of oxygen uptake is measured.

[4] = system: Saccharomyces cerevsiae; settings: cited from earlier work

## N[C@@H](Cc1cc(I)c(Oc2cc(I)c(O)c(I)c2)c(I)c1)C(=O)O [thyroxine]
[1]
  uncoupling: uncouple at higher concentrations
  stimulation of respiration and ATP production: stimulate respiration and ATP production

## O=C(O)[C@@H]1CCN1 [L-azetidine carboxylic acid]
[2]; mutant form of S. typhimurium TA 1530
  toxicity to mutant form: not toxic to its mutant form
[2]; normal form of S. typhimurium TA 1530
  toxicity to normal form: toxic to the normal form

## Nc1c2ccccc2nc2ccccc12 [9-amine acridine]
[3]
  oxygen uptake, dependence on mutagen level: dependent upon the level of the added known mutagen

## N[C@@H](Cc1cc(I)c(Oc2ccc(O)c(I)c2)c(I)c1)C(=O)O [triiodothyronine]
[1]
  uncoupling: uncouple at higher concentrations
  stimulation of respiration and ATP production: stimulate respiration and ATP production

## NC(N)=NOCC[C@H](N)C(=O)O.O=S(=O)(O)O [cavanine sulfate]
[4]; mutant form of yeast
  toxicity to mutant form: not to its mutant form
[4]; normal form of yeast
  toxicity to normal form: toxic to the normal form
